# Test results from patent US4068074A, “Cephalosporin derivatives having at the 3-position of the cephem ring a heterocyclic thiomethyl group with a carboxy or sulfo group and at the 7-position of the cephem ring an α-heterocylic acylaminophenyl-acetamide group” (priority 1974, dated 1978).
# Where two headings read alike, the source gives them in different places.
# Experiments:
# [1] = test system: Shigella flexneri 2a 1675; assay: MIC against bacteria (Table I), strain (11); assay type: cell-based; settings: 2A1675; (11) Shigella flexneri 2a 1675; read-out: MIC
# Source text: (§1) Now, for illustrating the excellent pharmacological effects of the compounds of this invention, the values of MIC (γ/ml.) of the compounds against various bacteria are shown in Table 1, in which the compounds of this invention used are shown by example numbers.
# [2] = test system: Staphylococcus Shimanishi; assay: MIC against bacteria (Table I), strain (17); assay type: cell-based
# Source text: as §1
# (17) Staphylococcus Shimanishi
# [3] = test system: Proteus mirabilis IXM OM-19; assay: MIC against bacteria (Table I), strain (3); assay type: cell-based; settings: IXMOM19; (3) Proteus mirabilis IXM OM-19; read-out: MIC
# Source text: as §1
# (3) Proteus mirabilis IXM OM-19
# [4] = test system: Bacillus megatherium 10778; assay: MIC against bacteria (Table I), strain (13); assay type: cell-based; settings: (13) Bacillus megatherium 10778; read-out: MIC
# Source text: as §1
# Staphylococcus Onuma = assay: MIC against bacteria (Table I), strain (18); assay type: cell-based
# Source text: as §1
# (18) Staphylococcus Onuma
# [5] = test system: Psuedomonas ovalis IMA 1002; assay: MIC against bacteria (Table I), strain (6); assay type: cell-based; settings: (6) Psuedomonas ovalis IMA 1002; read-out: MIC
# Source text: as §1
# (6) Psuedomonas ovalis IMA 1002
# Proteus vulgaris OXK US = assay: MIC against bacteria (Table I), strain (1); assay type: cell-based; settings: (1) Proteus vulgaris OXK US; read-out: MIC
# Source text: as §1
# (1) Proteus vulgaris OXK US
# Salmonella typhi H901 W = assay: MIC against bacteria (Table I), strain (9); assay type: cell-based; settings: Salmonella enterica, TYPHI
# Source text: as §1
# (9) Salmonella typhi H901 W
# Shigella sonnei II 37148 = assay: MIC against bacteria (Table I), strain (12); assay type: cell-based; settings: II37148; (12) Shigella sonnei II 37148; read-out: MIC
# Source text: as §1
# [6] = Residual antibacterial activity after incubation with 90% plasma (Table 4); assay type: in vitro ADME, male Sprague-Dowley rat; settings: 90% rat plasma
# Method: (§2) The relation between the reaction period of time and the antibacterial activity (residual activity, %) when these compounds are incubated with the plasma and the liver homogenate of a male Sprague-Dowley rat is shown in Table 4. The residual antibacterial activity was measured by a thin-layer cup method according to Bacillus subtilis ATCC 6633.
# A*Residual activity (%) when incubated with 90% plasma.
# [7] = Solubility of salts in water (Table 2); assay type: physicochemical; settings: disodium salt, water, showing pH 7.4; read-out: Solubility: disodium salt dissolved in water in an amount of
# Source text: An advantage of the compounds of this invention is that the salts, for example, sodium salts of these compounds are readily soluble in water at pH of living bodies, which makes them suitable for injections at high concentration. The solubility of these compounds are illustrated in Table 2 together with a control example.
# [8] = test system: Pseudomonas aeruginosa ATCC 8689; assay: MIC against bacteria (Table I), strain (4); assay type: cell-based; settings: ATCC8689; (4) Pseudomonas aeruginosa ATCC 8689; read-out: MIC
# Source text: as §1
# (4) Pseudomonas aeruginosa ATCC 8689
# Proteus vulgaris 0X 19US = assay: MIC against bacteria (Table I), strain (2); assay type: cell-based; settings: 0X19US
# Source text: as §1
# (2) Proteus vulgaris 0X 19US
# [9] = test system: Staphylococcus aureus 209P; assay: MIC against bacteria (Table I), strain (16); assay type: cell-based
# Source text: as §1
# (16) Staphylococcus aureus 209P
# [10] = test system: Klebsiella pneumoniae ATCC 10031; assay: MIC against bacteria (Table I), strain (8); assay type: cell-based; settings: ATCC10031
# Source text: as §1
# (8) Klebsiella pneumoniae ATCC 10031
# [11] = test system: Micrococcus flavus ATCC 10240; assay: MIC against bacteria (Table I), strain (15); assay type: cell-based; settings: ATCC10240
# Source text: as §1
# (15) Micrococcus flavus ATCC 10240
# [12] = test system: Pseudomonas aeruginosa 99 (Gentamycin resistant); assay: MIC against bacteria (Table I), strain (5); assay type: cell-based
# Source text: as §1
# (5) Pseudomonas aeruginosa 99 (Gentamycin resistant)
# [13] = Residual antibacterial activity after incubation with 10% liver homogenate (Table 4); assay type: in vitro ADME, male Sprague-Dowley rat; settings: 10% rat liver homogenate
# Method: as §2
# B*Residual activity (%) when incubated with 10% liver homogenate.
# Salmonella enteritidis = assay: MIC against bacteria (Table I), strain (10); assay type: cell-based; settings: Salmonella enterica
# Source text: as §1
# (10) Salmonella enteritidis
# [14] = test system: Escherichia coli kauffmann 0-1; assay: MIC against bacteria (Table I), strain (7); assay type: cell-based; settings: Escherichia coli
# Source text: as §1
# (7) Escherichia coli kauffmann 0-1
# [15] = test system: Bacillus subtilis ATCC 6633; assay: MIC against bacteria (Table I), strain (14); assay type: cell-based; settings: ATCC6633; (14) Bacillus subtilis ATCC 6633; read-out: MIC
# Source text: as §1
# (14) Bacillus subtilis ATCC 6633
# [16] = (17) Staphylococcus Shimanishi, read-out: MIC
# [17] = (18) Staphylococcus Onuma, read-out: MIC
# [18] = (2) Proteus vulgaris 0X 19US, read-out: MIC
# [19] = (8) Klebsiella pneumoniae ATCC 10031, read-out: MIC
# [20] = (15) Micrococcus flavus ATCC 10240, read-out: MIC
# [21] = (5) Pseudomonas aeruginosa 99 (Gentamycin resistant), read-out: MIC
# [22] = (16) Staphylococcus aureus 209P, read-out: MIC
# [23] = (10) Salmonella enteritidis, read-out: MIC
Compound,MIC [1] [µg/mL],"MIC [2, 16] [µg/mL]",MIC [3] [µg/mL],MIC [4] [µg/mL],MIC (Staphylococcus Onuma; [17]) [µg/mL],MIC [5] [µg/mL],MIC (Proteus vulgaris OXK US) [µg/mL],MIC (Salmonella typhi H901 W) [µg/mL],MIC (Shigella sonnei II 37148) [µg/mL],solubility [7] [mg/mL],MIC [8] [µg/mL],MIC (Proteus vulgaris 0X 19US; [18]) [µg/mL],"MIC ([9]; Staphylococcus aureus, 209P) [µg/mL]","MIC [10, 19] [µg/mL]","MIC [11, 20] [µg/mL]","MIC [12, 21] [µg/mL]",MIC (Salmonella enteritidis; ENTERITIDIS) [µg/mL],MIC [14] [µg/mL],MIC [15] [µg/mL],MIC (Salmonella enteritidis; [23]) [µg/mL],further results
"O=C(O)CCc1nnc(SCC2=C(C(=O)O)N3C(=O)[C@@H](NC(=O)[C@H](NC(=O)c4cnccc4O)c4ccccc4)[C@H]3SC2)s1 [Example 6, 7-[D-α-(4-hydroxynicotinoylamido)-α-phenylacetamido]-3-(5-carboxyethyl-1,3,4-thiadiazol-2-yl)thiomethyl-Δ^3-cephem-4-carboxylic acid]",0.78,6.25,0.39,0.39,12.5,6.25,< 0.09,1.56,3.13,> 200,12.5,< 0.09,1.56,6.25,6.25,6.25,0.39,3.13,0.39,–,"remaining at 0.25 h ([6]; 90% plasma, 15 minute): 92%; remaining at 0.5 h ([6]; 90% plasma, 30 minute): 102%; remaining at 1.5 h ([6]; 90% plasma, 90 minute): 102%; Residual activity ([6]; 0 minute): 100%; remaining at 0.25 h ([13]; 10% liver homogenate, 15 minute, read-out: Residual activity): 95.7%; remaining at 0.5 h ([13]; 10% liver homogenate, 30 minute, read-out: Residual activity): 89.1%; remaining at 1.5 h ([13]; 10% liver homogenate, 90 minute, read-out: Residual activity): 91.3%; Residual activity ([13]; 0 minute): 100%"
"Cc1nc(SCC2=C(C(=O)O)N3C(=O)[C@@H](NC(=O)[C@H](NC(=O)c4cnccc4O)c4ccccc4)[C@H]3SC2)sc1CC(=O)O [Example 23, 7-[D-α-(4-hydroxynicotinoylamido)-α-phenylacetamido]-3-(5-carboxymethyl-4-methylthiazol-2-yl)thiomethyl-Δ^3-cephem-4-carboxylic acid]",1.56,12.5,0.19,0.39,12.5,12.5,< 0.09,1.56,3.13,> 200,12.5,< 0.09,3.13,6.25,12.5,6.25,0.39,1.56,0.78,–,–
"Cc1nc(SCC2=C(C(=O)O)N3C(=O)[C@@H](NC(=O)[C@H](NC(=O)c4cnccc4O)c4ccccc4)[C@H]3SC2)sc1SCC(=O)O [Example 24, 7-[D-α-(4-hydroxynicotinoylamido)-α-phenylacetamido]-3-(5-carboxymethylthio-4-methylthiazol-2-yl)thiomethyl-Δ^3-cephem-4-carboxylic acid]",1.56,6.25,0.19,0.78,6.25,12.5,< 0.09,1.56,3.13,> 200,12.5,< 0.09,–,6.25,6.25,6.25,–,3.13,0.39,0.78,"MIC [9, 22]: 0.78 µg/mL"
"O=C(O)Cc1nnc(SCC2=C(C(=O)O)N3C(=O)[C@@H](NC(=O)[C@H](NC(=O)c4cnccc4O)c4ccccc4)[C@H]3SC2)s1 [Example 25, 7-[D-α-(4-hydroxynicotinoylamido)-α-phenylacetamido]-3-(5-carboxymethyl-1,3,4-thiadiazol-2-yl)thiomethyl-Δ^3-cephem-4-carboxylic acid]",1.56,3.13,0.39,0.39,–,12.5,< 0.09,0.39,6.25,> 200,12.5,–,–,–,–,–,–,3.13,0.39,0.19,"MIC (Staphylococcus Onuma; Staphylococcus): 6.25 µg/mL; MIC (Proteus vulgaris 0X 19US; Proteus vulgaris): 1.56 µg/mL; MIC [9, 22]: 0.78 µg/mL; MIC ([10]; Klebsiella pneumoniae): 6.25 µg/mL; MIC ([11]; Micrococcus flavus): 6.25 µg/mL; MIC ([12]; Pseudomonas aeruginosa): 6.25 µg/mL"
"COc1ccncc1C(=O)N[C@@H](C(=O)N[C@@H]1C(=O)N2C(C(=O)O)=C(CSc3nnc(SCC(=O)O)s3)CS[C@H]12)c1ccccc1 [Example 26, 7-[D-α-(4-methoxynicotinoylamido)-α-phenylacetamido]-3-(5-carboxymethylthio-1,3,4-thiadiazole-2-yl)thiomethyl-Δ^3-cephem-4-carboxylic acid]",3.13,–,0.78,0.78,12.5,25,0.19,6.25,6.25,> 200,12.5,0.39,1.56,12.5,–,12.5,–,6.25,0.78,1.56,MIC ([2]; Staphylococcus): 6.25 µg/mL; MIC ([11]; Micrococcus flavus): 6.25 µg/mL
